In general, GI50 refers to the concentration giving 50% growth inhibition. As a reminder, the IC50 is the concentration needed to halve the response being measured. A low value points to higher potency.

Data set [1] deals with A-549 (Human Lung Cancer Cell Line). The data set can be described thus: SRB antiproliferative assay, A-549. The class given is cell-based. The settings on record: Homo sapiens, A549, A-549, 48 h, read-out: GI50. The protocol: (§1) Following an extensive review of the literature, we selected human breast cancer (MCF-7, MDA-MB-231) and lung cancer (A549) cell lines to evaluate the anticancer potential of the synthesized compounds, and some compounds with good anti-proliferation activity were again tested to evaluate their cytotoxic potential on A-549, MCF-7, and MDA-MB-231. The same were also tested on one non-cancerous/normal (HEK-293) cell line. All the cell lines for the required screening were developed in a suitable medium comprising 10% FBS and 2mM L-glutamine. Cancerous and non-cancerous/normal cell lines were selected for the cell proliferation and cytotoxicity assay and maintained with 5% CO2 at 37 °C in a CO2 incubator with 100% relative humidity for one complete day before the addition of experimental drugs.
Antiproliferative activity through an SRB assay was performed for all the synthesized compounds on A-549 and MCF-7 cell lines. Around 5000 cells/well were quarantined into a 96-well microtiter plate in 100 μL. The synthesized compounds were solubilized in DMSO and diluted to different concentrations before use. The final-drug-concentration aliquots were poured into microtiter wells, and the plates were incubated for 48 h in regular conditions. After adding the final drug concentration, the cells were allowed to set in place and incubated for 60 min. A total of 50 µL of SRB solution (0.4% w/v) in 1% CH3COOH was poured into each well. The plates were then incubated for 20 min at RT. During subsequent staining, the unbounded dye was removed, and the plate reader recorded the eluted bound stain at 540 nm with a 690 nm reference wavelength. The assay was performed precisely using the appropriate reagents and reaction situation, as per the reported procedure. ADR was selected as the reference drug.

The test system of data set [2] is MCF-7 cells. The data set can be described thus: MTT cytotoxicity assay, MCF-7. In kind it is cell-based. The settings on record: Homo sapiens, MCF7, MCF-7, 24 h. As to the method: as §1
(§2) MTT, a well-known colorimetric cytotoxic assay was performed to validate the cytotoxicity of the selected compounds—VI(b), VI(c), VI(e), and VI(i)—against three different human tumor cell lines [MCF-7, MDA-MB-231, A549] and a normal cell line [HEK293]. The seeding of 1 × 10^4 cells onto each well was executed in a 96-well plate in triplicate, and to keep the cells viable, overnight incubation was undertaken at 37 °C with 5% CO2 in a CO2 incubator. […] The microplate reader was set at 570 nm to measure the absorbance of each well.
(Formazan colour is commonly taken as a measure of viable cells.)

For data set [3], the system named is MDA-MB-231 cells. Nature of the data set: MTT cytotoxicity assay, MDA-MB-231. In kind it is cell-based. The settings on record: Homo sapiens, MDA-MB-231, 24 h. The protocol:
as §1, §2

Data set [4] relates to A549 cells. Nature of the data set: MTT cytotoxicity assay, A549. In kind it is cell-based. The settings on record: Homo sapiens, A549, 24 h. The protocol:
as §1, §2

For data set [5], the system named is HEK-293 cells. The data set can be described thus: MTT cytotoxicity assay, normal cell line HEK-293. In kind it is cell-based. As to the method: as §1, §2
The test system of data set [6] is MCF-7 cells. The data set can be described thus: Apoptosis study, acridine orange/ethidium bromide dual staining. The settings on record: AO/EtBr staining, MCF-7, 40, 60, 80 µg/mL. In kind it is cell-based, human. As to the method: The staining technique was performed to determine changes in cellular morphology as acridine orange is a cell-permeable dye; i.e., it can enter inside the nucleus and subsequently intercalate with the DNA of both live and apoptotic cells an then emit a green fluorescence. On the other hand, ethidium bromide can only cross the plasma membrane of compromised or late apoptotic cells and bind with their DNA, subsequently radiating an orange to red fluorescence. Therefore, to assess alterations in the morphology of cells, MCF-7 cells were planted in a 12-well plate at a density of 5 × 10^4 cells/well and incubated in humidified air for 24 h at 37 °C. Following cell seeding, MCF-7 cells were exposed to compound VI(i) with at lower (40 µg/mL), IC50 (60 µg/mL), and higher (80 µg/mL) concentrations. Following this, the incubated cells were washed with a buffer (phosphate-buffered saline), and dual staining was executed with acridine orange and ethidium bromide. Then, a 12-well cell culture plate was kept at 37 °C for 30 min of incubation. Consequently, cells were lightly rinsed with phosphate-buffered saline. Following this, pictures were obtained in the inverted fluorescence microscope using the red and green channels for both the dyes.

In data set [7] the test system is MCF-7 cells. Nature of the data set: ROS detection with DCFH-DA. The class given is cell-based, human. The settings on record: MCF-7, 40, 60, 80 µg/mL, vs control. The text has this: ROS are commonly produced as a result of the cellular metabolic routes, and they play a key role as a secondary messenger in the healthy physiological system, but elevated quantities of ROS are the reason for various pathological conditions. To assess oxidative stress (ROS)-mediated apoptosis, DCFH-DA (2′,7′-dichlorodihydrofluorescein diacetate) dye was used as ROS transforms DCFH to DCF, producing a green fluorescence. The intensity of green fluorescence emitted is directly correlated with the amount of ROS produced by the cells in the treatment groups. Briefly, MCF-7 cells were passaged then seeded (5 × 10^4 cells /well) in a 12-well plate and exposed to all three (lower, IC50, higher) concentrations of compound VI(i); then, overnight incubation was undertaken with 5% carbon dioxide at 37 °C. To assess the generated ROS, treated cells (MCF-7) were washed with PBS. Staining was undertaken using DCFH-DA and photographed with the help of a fluorescence microscope (inverted) in the green and phase contrast channels.

The subject of data set [8] is MCF-7 cells. The data set can be described thus: Apoptosis assay, annexin V/PI flow cytometry. In kind it is cell-based, human. The settings on record: 24 h. The protocol: Qualitative analysis of different stages of apoptosis in MCF-7 cells using AO/EtBr dual staining was further quantitatively validated using annexin V/PI staining. Annexin V binds with the exposed phosphatidyl serine of apoptotic cells in a calcium-dependent manner and permits the determination of a number of cells in different stages of apoptosis. At the same time, PI binds with the nucleic acid of dead cells. In brief, cells were plated in a 6-well cell culture plate followed by exposure to lower, IC50, and higher concentrations of compound VI(i), as described in the above experiments. Following 24 h of incubation, treated cells were harvested using […] EDTA; then, annexin V/PI staining was performed, which was incubated for 30 min at 37 °C. The population of the apoptotic cells was examined by evaluating the cell suspension using a flow cytometer.
(In flow cytometry, cells or beads pass a laser one at a time.)

The mark [9] stands for this setting: MCF-7, IC50 concentration (60 µg/mL).
Where [10] appears, read: MCF-7, lower concentration (40 µg/mL).

In brackets after ≈: the same amount, converted by molar mass. Entries after “also recorded” stand apart in the source; their conditions may differ.

Consider `COc1ccc(-c2cnn(CCCCCC(=O)NO)n2)cc1` [VI(i), N-Hydroxy-6-(4-(4-methoxyphenyl)-2H-1,2,3-triazol-2-yl)hexanamide], for which, in data set [1], the 50% growth inhibitory concentration (GI50) was less than 10 µg/mL. Besides, the IC50 in data set [2] was 60 µg/mL (≈ 197 µM); in data set [3], more than 100 µg/mL; in data set [4], more than 100 µg/mL. Moreover, the “toxicity towards normal cell line” value in data set [5] is recorded as “low toxicity; also recorded: somewhat minimal toxicity”. In addition, the “apoptosis induction (cell morphology)” value in data set [6] is recorded as “effectively trigger the apoptotic mode of cell death in breast cancer cells in a concentration-dependent manner”. Moreover, the ROS level result in data set [7] was “significantly increased in concentration-dependent manner”. The figures for the “increment in early apoptotic cell population with respect to control” value in data set [8] (setting [9]) and in data set [8] (setting [10]) were 9.58% and 5.61%, respectively. Also, the “increment in late apoptotic cell population with respect to control” value in data set [8] (setting [9]) came out at 12.6%; in data set [8] (setting [10]) it was 4.14%.

The record behind these values is publication PMC12389269, “Heteroaryl-Capped Hydroxamic Acid Derivatives with Varied Linkers: Synthesis and Anticancer Evaluation with Various Apoptosis Analyses in Breast Cancer Cells, Including Docking, Simulation, DFT, and ADMET Studies” (Pharmaceuticals, 2025).
